Assay results from patent US20230265151A1, “GIP/GLP1 CO-AGONIST COMPOUNDS” (priority 2020, published 2023).
Read-outs that look alike come from different tables or passages of the source.

Tests used:
hGCGR = target: T1, hGCGR (Homo sapiens, UniProt P47871); assay: Functional cAMP formation (HTRF) in HEK-293 clonal cells expressing hGCGR, 0.1% bovine casein, without or with 1.0% human serum albumin; format: cell-based; conditions: geometric mean
T1 construct: expressed in transfected cells
How it was run: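 Readings of the HTRF 665/620 nm ratio, which falls as cAMP rises, were converted to nM cAMP using a standard curve after 30 min peptide exposure at 37° C.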

hGLP-1R = hGLP-1R (Homo sapiens, UniProt P43220); assay: Functional cAMP formation (HTRF) in HEK-293 clonal cells expressing hGLP-1R, 0.1% bovine casein, without or with 1.0% human serum albumin; format: cell-based; design: expressed in transfected cells; conditions: for Emax: 0.1% bovine casein, arithmetic mean; for EC50: cAMP, 0.1% bovine casein (no human serum albumin), geometric mean
Description: After a 30-min incubation at 37° C., the resulting increase in intracellular cAMP is quantitatively determined using a CisBio cAMP Dynamic 2 HTRF Assay Kit (62AM4PEJ). Briefly, cAMP levels within the cell are detected by adding the cAMP-d2 conjugate in cell lysis buffer (10 µL) followed by the antibody anti-cAMP-Eu^3+-Cryptate, also in cell lysis buffer (10 µL). The resulting competitive assay is incubated for at least 60 min at room temperature, and then is detected using a PerkinElmer Envision® instrument with excitation at 320 nm and emission at 665 nm and 620 nm. Envision units (emission at 665 nm/620 nm* 10,000) are inversely proportional to the amount of cAMP present and are converted to nM cAMP per well us-ing a cAMP standard curve. […] A relative EC50 value and percent top (Emax) are derived by non-linear regression analysis using the percent maximal response vs. the concentration of peptide added, fitted to a four-parameter logistic equation.

[1] = hGCGR EC50, nM (SEM, n), cAMP, incubated at 37° C., 0.1% bovine casein (no human serum albumin)
[2] = HEK293, read-out: hGLP-1R Emax, % ± SEM, percent of maximal response to GLP-1(7-36)NH2, 37° C.
[3] = hGLP-1R EC50, nM (SEM, n), incubated at 37° C.

T1 sequence (P47871 26-477): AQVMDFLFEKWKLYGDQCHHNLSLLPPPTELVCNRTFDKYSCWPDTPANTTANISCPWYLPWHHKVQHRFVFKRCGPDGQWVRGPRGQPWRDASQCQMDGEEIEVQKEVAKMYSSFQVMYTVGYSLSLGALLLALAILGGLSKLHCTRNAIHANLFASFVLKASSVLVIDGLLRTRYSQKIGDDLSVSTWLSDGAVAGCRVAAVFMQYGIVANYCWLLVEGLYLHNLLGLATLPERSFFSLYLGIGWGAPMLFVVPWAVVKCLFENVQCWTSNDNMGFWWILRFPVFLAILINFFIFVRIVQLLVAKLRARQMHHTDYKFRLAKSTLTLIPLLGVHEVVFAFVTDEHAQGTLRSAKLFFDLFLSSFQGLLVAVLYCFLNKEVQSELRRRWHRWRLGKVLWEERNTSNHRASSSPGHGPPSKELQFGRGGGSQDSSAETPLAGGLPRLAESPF
Sequence of hGLP-1R (P43220 24-463): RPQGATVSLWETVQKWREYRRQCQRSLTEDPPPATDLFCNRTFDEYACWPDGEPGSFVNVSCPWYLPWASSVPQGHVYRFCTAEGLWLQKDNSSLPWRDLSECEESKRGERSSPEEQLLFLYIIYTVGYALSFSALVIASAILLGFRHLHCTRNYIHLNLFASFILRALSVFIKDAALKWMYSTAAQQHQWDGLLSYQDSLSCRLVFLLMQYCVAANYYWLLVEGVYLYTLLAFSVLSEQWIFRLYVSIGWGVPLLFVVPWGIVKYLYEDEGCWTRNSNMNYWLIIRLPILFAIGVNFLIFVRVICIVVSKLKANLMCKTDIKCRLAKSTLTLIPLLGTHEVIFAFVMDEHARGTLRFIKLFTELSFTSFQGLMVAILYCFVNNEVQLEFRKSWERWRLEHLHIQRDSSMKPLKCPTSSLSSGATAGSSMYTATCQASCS

`CC[C@H](C)[C@H](NC(=O)[C@H](CC(C)C)NC(=O)[C@](C)(Cc1ccccc1)NC(=O)[C@H](CCCCNC(=O)COCCOCCNC(=O)COCCOCCNC(=O)CC[C@H](NC(=O)CCCCCCCCCCCCC(=O)O)C(=O)O)NC(=O)[C@@H](NC(=O)[C@](C)(Cc1ccccc1)NC(=O)[C@H](CCC(=O)O)NC(=O)C(C)(C)NC(=O)[C@H](CCC(N)=O)NC(=O)[C@H](C)NC(=O)[C@H](CCCCNC(=O)COCCOCCNC(=O)COCCOCCNC(=O)CC[C@H](NC(=O)CCCCCCCCCCCCC(=O)O)C(=O)O)NC(=O)[C@H](CCCN)NC(=O)[C@H](CC(=O)O)NC(=O)[C@H](CC(C)C)NC(=O)[C@](C)(CC(C)C)NC(=O)[C@@H](NC(=O)[C@H](CO)NC(=O)C1(NC(=O)[C@H](CC(=O)O)NC(=O)[C@H](CO)NC(=O)[C@@H](NC(=O)[C@](C)(Cc2ccccc2F)NC(=O)[C@@H](NC(=O)CNC(=O)[C@H](CCC(=O)O)NC(=O)C(C)(C)NC(=O)[C@@H](N)Cc2ccc(O)cc2)[C@@H](C)O)[C@@H](C)O)CCCC1)[C@@H](C)CC)[C@@H](C)CC)C(=O)N[C@@H](CCC(=O)O)C(=O)NCC(=O)NCC(=O)N1CCC[C@H]1C(=O)N[C@@H](CO)C(=O)N[C@@H](CO)C(=O)NCC(=O)N[C@@H](C)C(=O)N1CCC[C@H]1C(=O)N1CCC[C@H]1C(=O)N1CCC[C@H]1C(=O)N[C@@H](CO)C(N)=O` [Example 124] gave an EC50 (hGCGR; [1]) of over 9950 nM and an Emax (hGLP-1R; [2]) of 93.3%.

`CC[C@H](C)[C@H](NC(=O)[C@H](CC(C)C)NC(=O)[C@](C)(Cc1ccc(O)cc1)NC(=O)[C@@H](CCC(=O)O)NC(=O)[C@@H](NC(=O)[C@H](Cc1ccccc1)NC(=O)[C@H](CCCCNC(=O)COCCOCCNC(=O)COCCOCCNC(=O)CC[C@H](NC(=O)CCCCCCCCCOc1ccc(C(=O)O)cc1)C(=O)O)NC(=O)C(C)(C)NC(=O)[C@H](CCC(N)=O)NC(=O)[C@H](C)NC(=O)[C@H](CCCCNC(=O)COCCOCCNC(=O)COCCOCCNC(=O)CC[C@H](NC(=O)CCCCCCCCCOc1ccc(C(=O)O)cc1)C(=O)O)NC(=O)[C@H](CCCN)NC(=O)[C@H](CC(=O)O)NC(=O)[C@H](CC(C)C)NC(=O)[C@](C)(CC(C)C)NC(=O)[C@@H](NC(=O)[C@H](CO)NC(=O)[C@H](Cc1ccncc1)NC(=O)[C@H](CC(=O)O)NC(=O)[C@H](CO)NC(=O)[C@@H](NC(=O)[C@](C)(Cc1ccccc1F)NC(=O)[C@@H](NC(=O)CNC(=O)[C@H](CCC(=O)O)NC(=O)C(C)(C)NC(=O)[C@@H](N)Cc1ccc(O)cc1)[C@@H](C)O)[C@@H](C)O)[C@@H](C)CC)[C@@H](C)CC)C(=O)N[C@@H](CCC(=O)O)C(=O)NCC(=O)NCC(=O)N1CCC[C@H]1C(=O)N[C@@H](CO)C(=O)N[C@@H](CO)C(=O)NCC(=O)N[C@@H](C)C(=O)N1CCC[C@H]1C(=O)N1CCC[C@H]1C(=O)N1CCC[C@H]1C(=O)N[C@@H](CO)C(N)=O` [Example 127] gave an EC50 (hGCGR; [1]) of over 9950 nM and an Emax (hGLP-1R; [2]) of 98.5%.

In the case of `CC[C@H](C)[C@H](NC(=O)[C@H](CC(C)C)NC(=O)[C@](C)(Cc1ccc(O)cc1)NC(=O)[C@@H](CCC(=O)O)NC(=O)[C@@H](NC(=O)[C@H](Cc1ccccc1)NC(=O)[C@H](CCC(=O)O)NC(=O)C(C)(C)NC(=O)[C@H](CCC(N)=O)NC(=O)[C@H](C)NC(=O)[C@H](CCCCNC(=O)COCCOCCNC(=O)COCCOCCNC(=O)CC[C@H](NC(=O)CCCCCCCCCOc1ccc(C(=O)O)cc1)C(=O)O)NC(=O)[C@H](CCCN)NC(=O)[C@H](CC(=O)O)NC(=O)[C@H](CC(C)C)NC(=O)[C@](C)(CC(C)C)NC(=O)[C@@H](NC(=O)[C@H](CO)NC(=O)[C@H](Cc1ccncc1)NC(=O)[C@H](CC(=O)O)NC(=O)[C@H](CO)NC(=O)[C@@H](NC(=O)[C@](C)(Cc1ccccc1F)NC(=O)[C@@H](NC(=O)CNC(=O)[C@H](CCC(=O)O)NC(=O)C(C)(C)NC(=O)[C@@H](N)Cc1ccc(O)cc1)[C@@H](C)O)[C@@H](C)O)[C@@H](C)CC)[C@@H](C)CC)C(=O)N[C@@H](CCCCNC(=O)COCCOCCNC(=O)COCCOCCNC(=O)CC[C@H](NC(=O)CCCCCCCCCOc1ccc(C(=O)O)cc1)C(=O)O)C(=O)NCC(=O)NCC(=O)N1CCC[C@H]1C(=O)N[C@@H](CO)C(=O)N[C@@H](CO)C(=O)NCC(=O)N[C@@H](C)C(=O)N1CCC[C@H]1C(=O)N1CCC[C@H]1C(=O)N1CCC[C@H]1C(=O)N[C@@H](CO)C(N)=O` [Example 129], the EC50 (hGCGR; [1]) is reported as over 9950 nM, the Emax (hGLP-1R; [2]) is reported as 97.9% and the EC50 (hGLP-1R; [3]) is reported as 1.28 nM.

`CC[C@H](C)[C@H](NC(=O)[C@H](CC(C)C)NC(=O)[C@](C)(Cc1ccc(O)cc1)NC(=O)[C@@H](CCC(=O)O)NC(=O)[C@@H](NC(=O)[C@H](Cc1ccccc1)NC(=O)[C@H](CCC(=O)O)NC(=O)[C@H](CCCN)NC(=O)[C@H](CCC(N)=O)NC(=O)[C@H](C)NC(=O)[C@H](CCCCNC(=O)COCCOCCNC(=O)COCCOCCNC(=O)CC[C@H](NC(=O)CCCCCCCCCCCCC(=O)O)C(=O)O)NC(=O)[C@H](CCCN)NC(=O)[C@H](CC(=O)O)NC(=O)[C@H](CC(C)C)NC(=O)[C@](C)(CC(C)C)NC(=O)[C@@H](NC(=O)[C@H](CO)NC(=O)[C@H](Cc1ccncc1)NC(=O)[C@H](CC(=O)O)NC(=O)[C@H](CO)NC(=O)[C@@H](NC(=O)[C@](C)(Cc1ccccc1F)NC(=O)[C@@H](NC(=O)CNC(=O)[C@H](CCC(=O)O)NC(=O)C(C)(C)NC(=O)[C@@H](N)Cc1ccc(O)cc1)[C@@H](C)O)[C@@H](C)O)[C@@H](C)CC)[C@@H](C)CC)C(=O)N[C@@H](CCC(=O)O)C(=O)NCC(=O)NCC(=O)N[C@@H](CCCCNC(=O)COCCOCCNC(=O)COCCOCCNC(=O)CC[C@H](NC(=O)CCCCCCCCCCCCC(=O)O)C(=O)O)C(=O)N[C@@H](CO)C(=O)N[C@@H](CO)C(=O)NCC(=O)N[C@@H](C)C(=O)N1CCC[C@H]1C(=O)N1CCC[C@H]1C(=O)N1CCC[C@H]1C(=O)N[C@@H](CO)C(N)=O` [Example 149] gave an EC50 (hGCGR; cAMP, incubated at 37° C., 0.1% bovine casein (no human serum albumin), read-out: hGCGR EC50, nM (SEM, n)) of over 9950 nM, an Emax (hGLP-1R; HEK293, percent of maximal response to GLP-1(7-36)NH2, 37° C., read-out: hGLP-1R Emax, % ± SEM) of 98.3 ± 0.579% and an EC50 (hGLP-1R; incubated at 37° C., read-out: hGLP-1R EC50, nM (SEM, n)) of 1.5 nM.

For `CC[C@H](C)[C@H](NC(=O)[C@H](CC(C)C)NC(=O)[C@](C)(Cc1ccc(O)cc1)NC(=O)[C@H](CCCCNC(=O)[C@@H](N)CCCCNC(=O)CC[C@H](NC(=O)CCCCCCCCCCCCC(=O)O)C(=O)O)NC(=O)[C@@H](NC(=O)[C@H](Cc1ccccc1)NC(=O)[C@H](CCC(=O)O)NC(=O)C(C)(C)NC(=O)[C@H](CCC(N)=O)NC(=O)[C@H](C)NC(=O)[C@H](CCCCNC(=O)[C@@H](N)CCCCNC(=O)CC[C@H](NC(=O)CCCCCCCCCCCCC(=O)O)C(=O)O)NC(=O)[C@H](CCCN)NC(=O)[C@H](CC(=O)O)NC(=O)[C@H](CC(C)C)NC(=O)[C@](C)(CC(C)C)NC(=O)[C@@H](NC(=O)C(C)(C)NC(=O)[C@@H](NC(=O)[C@H](CC(=O)O)NC(=O)[C@H](CO)NC(=O)[C@@H](NC(=O)[C@](C)(Cc1ccccc1F)NC(=O)[C@@H](NC(=O)CNC(=O)[C@H](CCC(=O)O)NC(=O)C(C)(C)NC(=O)[C@@H](N)Cc1ccc(O)cc1)[C@@H](C)O)[C@@H](C)O)C(C)C)[C@@H](C)CC)[C@@H](C)CC)C(=O)N[C@@H](CCC(=O)O)C(=O)NCC(=O)NCC(=O)N1CCC[C@H]1C(=O)N[C@@H](CO)C(=O)N[C@@H](CO)C(=O)NCC(=O)N[C@@H](C)C(=O)N1CCC[C@H]1C(=O)N1CCC[C@H]1C(=O)N1CCC[C@H]1C(=O)N[C@@H](CO)C(N)=O` [Example 167], the EC50 (hGCGR; [1]) was over 9950 nM, the Emax (hGLP-1R; [2]) was 91.4 ± 3.21% and the EC50 (hGLP-1R; [3]) was 0.217 nM.

Work on `CC[C@H](C)[C@H](NC(=O)[C@H](CC(C)C)NC(=O)[C@](C)(Cc1ccc(O)cc1)NC(=O)[C@@H](CCC(=O)O)NC(=O)[C@@H](NC(=O)[C@H](Cc1ccccc1)NC(=O)[C@H](CCC(=O)O)NC(=O)C(C)(C)NC(=O)[C@H](CCC(N)=O)NC(=O)[C@H](C)NC(=O)[C@H](CCCCNC(=O)COCCOCCNC(=O)COCCOCCNC(=O)CC[C@H](NC(=O)CCCCCCCCCCCCC(=O)O)C(=O)O)NC(=O)[C@H](CCCN)NC(=O)[C@H](CC(=O)O)NC(=O)[C@H](CC(C)C)NC(=O)[C@](C)(CC(C)C)NC(=O)[C@@H](NC(=O)[C@H](CO)NC(=O)[C@H](Cc1ccc2ccccc2c1)NC(=O)[C@H](CC(=O)O)NC(=O)[C@H](CO)NC(=O)[C@@H](NC(=O)[C@](C)(Cc1ccccc1F)NC(=O)[C@@H](NC(=O)CNC(=O)[C@H](CCC(=O)O)NC(=O)C(C)(C)NC(=O)[C@@H](N)Cc1ccc(O)cc1)[C@@H](C)O)[C@@H](C)O)[C@@H](C)CC)[C@@H](C)CC)C(=O)N[C@@H](CCCCNC(=O)COCCOCCNC(=O)COCCOCCNC(=O)CC[C@H](NC(=O)CCCCCCCCCCCCC(=O)O)C(=O)O)C(=O)NCC(=O)NCC(=O)N1CCC[C@H]1C(=O)N[C@@H](CO)C(=O)N[C@@H](CO)C(=O)NCC(=O)N[C@@H](C)C(=O)N1CCC[C@H]1C(=O)N1CCC[C@H]1C(=O)N1CCC[C@H]1C(=O)N[C@@H](CO)C(N)=O` [Example 250] yielded an EC50 (hGCGR; 0.1% bovine casein and 1.0% human serum albumin, 37° C., read-out: hGCGR EC50, nM (SEM, n)) of over 9950 nM, an EC50 (hGCGR; cAMP, 37° C., 0.1% bovine casein (no human serum albumin), read-out: hGCGR EC50, nM (SEM, n)) of over 9950 nM and an Emax (hGLP-1R; HEK293, cAMP, 37° C., percent of maximal response to GLP-1(7-36)NH2, read-out: hGLP-1R Emax, % ± SEM) of 114%. It also gave an EC50 (hGLP-1R; 37° C., read-out: hGLP-1R EC50, nM (SEM, n)) of 0.414 nM.
